Data published in patent US20200345746A1, “Oxazine Derivative for Use in the Prevention of Alzheimer's Disease in at Risk Patents” (Novartis AG, priority 2016, published 2020).

How the values were obtained:
Format in all cases: in vivo
[1] = First-in-human study: safety and tolerability; settings: healthy elderly subjects
From the text: (§1) The purpose of this study was to determine the single and multiple maximum tolerated dose of Compound 1 and to assess the pharmacokinetic/pharmacodynamic (PK/PD) relationship using Aβ in CSF as primary PD biomarker.

[2] = system: Aβ42; assay: Triton TX-100 soluble Aβ42 in APP23 mouse brain; settings: APP23 mice
Experimental: Frozen mouse forebrains were weighed and homogenized in 9 volumes (w/v) of ice-cold TBS-Complete (20 mM Tris-HCl pH 7.4, 137 mM NaCl, 1× Complete [Protease Inhibitor Cocktail Tablets: 1 836 145, Roche Diagnostics GmbH, Penzberg, Germany]) by sonication (90% duty cycle, output control 5, 40-55 pulses, [Sonifier 450, Branson]). After homogenization several 50 μl aliquots were prepared for analysis and were stored at −80° C.
Human Aβ40 and 42 in mice was determined with the Meso Scale Discovery (MSD) 96-well MULTI-ARRAY human/rodent (6E10) Aβ40/42 Assay (Meso Scale Discovery, Rockville, Md., USA). The assay was performed according to the manufacturer's instructions except for the calibration curve and the sample preparations. […]
The calibration curve was prepared in a corresponding dilution of 1% Blocker A solution spiked with synthetic Aβ1-40 peptide (1.56-100 pg/ml) except for non-transgenic mouse brain samples: In this case, the calibration curve was prepared in a correspondingly diluted APP knockout mouse forebrain spiked with synthetic Aβ1-40 peptide (1.56-100 pg/ml). […] The relative units for samples and standards were imported into SOFTmax PRO 4.0 for calculation of standard curves and quantification of samples. […]

[3] = system: Aβ40; assay: First-in-human study: Aβ40 in CSF; settings: for Aβ40 % change from baseline, Mean (SD) / Aβ40 % change from baseline, Median: CSF, 2 weeks; for lowering of CSF Aβ40 concentrations, up to: healthy elderly subjects
Experimental: as §1
Pharmacodynamic assessments using Aβ concentrations in CSF as primary biomarker of drug action were also been applied in healthy elderly subjects. Dose-dependent lowering of Aβ40 concentrations was determined up to approximately 80% and 90% after single and multiple dosing, respectively (Tables 14 and 15, FIG. 9).
In the completed first-in-human and 3-month dose-ranging safety and tolerability clinical studies described in Examples 5 and 6, Aβ concentrations in CSF were obtained by means of lumbar punctures before the first dose (baseline) and respectively after 2 weeks and 3 months of multiple dosing. ApoE4 genotype also was obtained in the subjects who consented. The percent change from baseline in Aβ40 and Aβ42 concentrations was calculated in subjects who took the study treatment and had no major protocol deviation with potential impact on the evaluation of the pharmacodynamic effect. Tables 18 to 21 below provide summary statistics of the percent change from baseline by treatment group and ApoE genotype (E4 heterozygotes versus E4 non-carriers). Only one subject with CSF data was E4 homozygote (from the 3-month dose-ranging safety and tolerability study).

[4] = multiple-dose 10 mg, Day 15 (24 h post last dose)
[5] = multiple-dose 30 mg, Day 15 (24 h post last dose)
[6] = multiple-dose 90 mg, Day 15 (24 h post last dose)
[7] = multiple-dose 300 mg, Day 15 (24 h post last dose)

C[C@@]1(c2nc(NC(=O)c3ncc(C(F)(F)F)cc3Cl)ccc2F)CO[C@@](C)(C(F)(F)F)C(N)=N1 [Compound 1, N-(6-((3R,6R)-5-amino-3,6-dimethyl-6-(trifluoromethyl)-3,6-dihydro-2H-1,4-oxazin-3-yl)-5-fluoropyridin-2-yl)-3-chloro-5-(trifluoromethyl)picolinamide]
safety and tolerability ([1]; 300 mg QD over two weeks (highest tested)): safe and tolerated
safety and tolerability ([1]; 750 mg single dose (highest tested)): safe and tolerated
Aβ42 change vs vehicle (Triton TX-100 soluble, brain) ([2]; 0.03 g/kg vs vehicle): −20.1%
Aβ42 change vs vehicle (Triton TX-100 soluble, brain) ([2]; 0.3 g/kg vs vehicle): −77.3%
Aβ40 % change from baseline, Mean (SD) ([3]; 10 mg, E4 heterozygotes): −56 (10) %
Aβ40 % change from baseline, Median ([3]; 10 mg, E4 heterozygotes): −53%
Aβ40 % change from baseline, Mean (SD) ([3]; 10 mg, E4 non-carriers): −59 (7) %
Aβ40 % change from baseline, Median ([3]; 10 mg, E4 non-carriers): −61%
Aβ40 % change from baseline, Mean (SD) ([3]; 30 mg, E4 non-carriers): −80 (4) %
Aβ40 % change from baseline, Median ([3]; 30 mg, E4 non-carriers): −81%
Aβ40 % change from baseline, Mean (SD) ([3]; 90 mg, E4 heterozygotes): −90 (2) %
Aβ40 % change from baseline, Median ([3]; 90 mg, E4 heterozygotes): −90%
Aβ40 % change from baseline, Mean (SD) ([3]; 90 mg, E4 non-carriers): −89 (2) %
Aβ40 % change from baseline, Median ([3]; 90 mg, E4 non-carriers): −90%
Aβ40 % change from baseline, Mean (SD) ([3]; 300 mg, E4 heterozygotes (n 1)): −93%
Aβ40 % change from baseline, Median ([3]; 300 mg, E4 heterozygotes (n 1)): −93%
Aβ40 % change from baseline, Mean (SD) ([3]; 300 mg, E4 non-carriers): −94 (1) %
Aβ40 % change from baseline, Median ([3]; 300 mg, E4 non-carriers): −94%
lowering of CSF Aβ40 concentrations, up to ([3]; multiple dosing): ~90%
lowering of CSF Aβ40 concentrations, up to ([3]; single dosing): approximately 80%
Aβ40 in CSF percent change from baseline, Mean (SD) [3, 4]: −60.1 (9.91) %
Aβ40 in CSF percent change from baseline, Median [3, 4]: −61.5%
Aβ40 in CSF percent change from baseline, Mean (SD) [3, 5]: −80.0 (3.89) %
Aβ40 in CSF percent change from baseline, Median [3, 5]: −80.2%
Aβ40 in CSF percent change from baseline, Mean (SD) [3, 6]: −88.2 (3.07) %
Aβ40 in CSF percent change from baseline, Median [3, 6]: −89.1%
Aβ40 in CSF percent change from baseline, Mean (SD) [3, 7]: −93.6 (0.61) %
Aβ40 in CSF percent change from baseline, Median [3, 7]: −93.5%
Aβ40 in CSF percent change from baseline, Mean (SD) ([3]; single-dose 10 mg, 12 h): −11.6 (8.31) %
Aβ40 in CSF percent change from baseline, Median ([3]; single-dose 10 mg, 12 h): −12.5%
Aβ40 in CSF percent change from baseline, Min-Max ([3]; single-dose 10 mg, 12 h): −21-1%
Aβ40 in CSF percent change from baseline, Mean (SD) ([3]; single-dose 10 mg, 24 h): −15.0 (10.21) %
Aβ40 in CSF percent change from baseline, Median ([3]; single-dose 10 mg, 24 h): −14.3%
Aβ40 in CSF percent change from baseline, Min-Max ([3]; single-dose 10 mg, 24 h): −31-−4%
Aβ40 in CSF percent change from baseline, Mean (SD) ([3]; single-dose 10 mg, 34 h): −9.7 (14.72) %
Aβ40 in CSF percent change from baseline, Median ([3]; single-dose 10 mg, 34 h): −12.5%
Aβ40 in CSF percent change from baseline, Min-Max ([3]; single-dose 10 mg, 34 h): −25-10%
Aβ40 in CSF percent change from baseline, Mean (SD) ([3]; single-dose 90 mg, 12 h): −14.2 (35.83) %
Aβ40 in CSF percent change from baseline, Median ([3]; single-dose 90 mg, 12 h): −28.0%
Aβ40 in CSF percent change from baseline, Min-Max ([3]; single-dose 90 mg, 12 h): −36-58%
Aβ40 in CSF percent change from baseline, Mean (SD) ([3]; single-dose 90 mg, 24 h): −44.8 (12.48) %
Aβ40 in CSF percent change from baseline, Median ([3]; single-dose 90 mg, 24 h): −49.2%
Aβ40 in CSF percent change from baseline, Min-Max ([3]; single-dose 90 mg, 24 h): −55-−25%
Aβ40 in CSF percent change from baseline, Mean (SD) ([3]; single-dose 90 mg, 34 h): −50.0 (8.87) %
Aβ40 in CSF percent change from baseline, Median ([3]; single-dose 90 mg, 34 h): −45.4%
Aβ40 in CSF percent change from baseline, Min-Max ([3]; single-dose 90 mg, 34 h): −60-−41%
Aβ40 in CSF percent change from baseline, Mean (SD) ([3]; single-dose 300 mg, 12 h): −35.8 (16.40) %
Aβ40 in CSF percent change from baseline, Median ([3]; single-dose 300 mg, 12 h): −44.1%
Aβ40 in CSF percent change from baseline, Min-Max ([3]; single-dose 300 mg, 12 h): −54-−13%
Aβ40 in CSF percent change from baseline, Mean (SD) ([3]; single-dose 300 mg, 24 h): −68.3 (10.65) %
Aβ40 in CSF percent change from baseline, Median ([3]; single-dose 300 mg, 24 h): −72.5%
Aβ40 in CSF percent change from baseline, Min-Max ([3]; single-dose 300 mg, 24 h): −79-−52%
Aβ40 in CSF percent change from baseline, Mean (SD) ([3]; single-dose 300 mg, 34 h): −78.3 (4.75) %
Aβ40 in CSF percent change from baseline, Median ([3]; single-dose 300 mg, 34 h): −79.3%
Aβ40 in CSF percent change from baseline, Min-Max ([3]; single-dose 300 mg, 34 h): −84-−69%
Aβ40 in CSF percent change from baseline, Mean (SD) ([3]; single-dose 750 mg, 12 h): −36.2 (13.58) %
Aβ40 in CSF percent change from baseline, Median ([3]; single-dose 750 mg, 12 h): −38.6%
Aβ40 in CSF percent change from baseline, Min-Max ([3]; single-dose 750 mg, 12 h): −53-−10%
Aβ40 in CSF percent change from baseline, Mean (SD) ([3]; single-dose 750 mg, 24 h): −67.4 (15.54) %
Aβ40 in CSF percent change from baseline, Median ([3]; single-dose 750 mg, 24 h): −70.6%
Aβ40 in CSF percent change from baseline, Min-Max ([3]; single-dose 750 mg, 24 h): −82-−36%
Aβ40 in CSF percent change from baseline, Mean (SD) ([3]; single-dose 750 mg, 34 h): −79.1 (8.88) %
Aβ40 in CSF percent change from baseline, Median ([3]; single-dose 750 mg, 34 h): −82.3%
Aβ40 in CSF percent change from baseline, Min-Max ([3]; single-dose 750 mg, 34 h): −87-−60%
